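Five concentrations, 48 hours, 96-well plates. Here, GI50 denotes the concentration required for 50% inhibition of growth.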 Active and inactive are the calls of the source. Rule as the data show it: active = GI50 up to about 1.1 µM and inactive = higher.
Tests used:
Test in all cases: NCI anticancer screen, dose series, 48 h
[1] = tested on: A498
[2] = tested on: ACHN
[3] = tested on: BT-549
[4] = tested on: COLO 205
[5] = tested on: DU-145
[6] = tested on: EKVX
[7] = tested on: HCT-116
[8] = tested on: IGROV-1
[9] = tested on: K562
[10] = tested on: M14
[11] = tested on: MDA-MB-435
[12] = tested on: MDA-N
[13] = tested on: MOLT-4
[14] = tested on: Malme-3M
[15] = tested on: NCI-H226
[16] = tested on: NCI-H23
[17] = tested on: NCI-H522
[18] = tested on: OVCAR-3
[19] = tested on: OVCAR-5
[20] = tested on: PC-3
[21] = tested on: RXF 393
[22] = tested on: SK-MEL-2
[23] = tested on: SK-MEL-5
[24] = tested on: SK-OV-3
[25] = tested on: T47D
[26] = tested on: UACC-257
[27] = tested on: UO-31
[28] = tested on: 786-0
[29] = tested on: A549
[30] = tested on: CAKI-1
[31] = tested on: CCRF-CEM
[32] = tested on: HCC 2998
[33] = tested on: HCT-15
[34] = tested on: HOP-62
[35] = tested on: HOP-92
[36] = tested on: HT-29
[37] = tested on: KM12
[38] = tested on: LOX IMVI
[39] = tested on: MCF7
[40] = tested on: MDA-MB-231
[41] = tested on: NCI-H460
[42] = tested on: NCI/ADR-RES
[43] = tested on: OVCAR-4
[44] = tested on: OVCAR-8
[45] = tested on: RPMI-8226
[46] = tested on: SF-268
[47] = tested on: SF-295
[48] = tested on: SF-539
[49] = tested on: SK-MEL-28
[50] = tested on: SN12C
[51] = tested on: SNB-19
[52] = tested on: SR
[53] = tested on: SW-620
[54] = tested on: TK-10
[55] = tested on: U-251
[56] = tested on: UACC-62

Clc1ccc(-c2cc(-c3cc(-c4ccc(Cl)cc4)[nH]n3)[nH]n2)cc1
GI50 [1]: > 100 µM (inactive)
GI50 [2]: > 100 µM (inactive)
GI50 [3]: > 100 µM (inactive)
GI50 [4]: > 100 µM (inactive)
GI50 [5]: > 100 µM (inactive)
GI50 [6]: > 100 µM (inactive)
GI50 [7]: > 100 µM (inactive)
GI50 [8]: > 100 µM (inactive)
GI50 [9]: > 100 µM (inactive)
GI50 [10]: > 100 µM (inactive)
GI50 [11]: > 100 µM (inactive)
GI50 [12]: > 100 µM (inactive)
GI50 [13]: > 100 µM (inactive)
GI50 [14]: > 100 µM (inactive)
GI50 [15]: > 100 µM (inactive)
GI50 [16]: > 100 µM (inactive)
GI50 [17]: > 100 µM (inactive)
GI50 [18]: > 100 µM (inactive)
GI50 [19]: > 100 µM (inactive)
GI50 [20]: > 100 µM (inactive)
GI50 [21]: > 100 µM (inactive)
GI50 [22]: > 100 µM (inactive)
GI50 [23]: > 100 µM (inactive)
GI50 [24]: > 100 µM (inactive)
GI50 [25]: > 100 µM (inactive)
GI50 [26]: > 100 µM (inactive)
GI50 [27]: > 100 µM (inactive)

CN(C)/C=C/c1ccncc1
GI50 [28]: > 100 µM (inactive)
GI50 [1]: > 100 µM (inactive)
GI50 [29]: > 100 µM (inactive)
GI50 [2]: > 100 µM (inactive)
GI50 [3]: > 100 µM (inactive)
GI50 [30]: > 100 µM (inactive)
GI50 [31]: 48.6 µM (inactive)
GI50 [4]: > 100 µM (inactive)
GI50 [5]: > 100 µM (inactive)
GI50 [6]: > 100 µM (inactive)
GI50 [32]: > 100 µM (inactive)
GI50 [7]: > 100 µM (inactive)
GI50 [33]: > 100 µM
GI50 [34]: > 100 µM (inactive)
GI50 [35]: > 100 µM (inactive)
GI50 [36]: > 100 µM (inactive)
GI50 [8]: > 100 µM (inactive)
GI50 [9]: > 100 µM (inactive)
GI50 [37]: > 100 µM (inactive)
GI50 [38]: > 100 µM (inactive)
GI50 [10]: > 100 µM (inactive)
GI50 [39]: > 100 µM (inactive)
GI50 [40]: > 100 µM (inactive)
GI50 [11]: > 100 µM (inactive)
GI50 [12]: > 100 µM (inactive)
GI50 [13]: 28.7 µM (inactive)
GI50 [14]: > 100 µM (inactive)
GI50 [15]: > 100 µM (inactive)
GI50 [16]: > 100 µM (inactive)
GI50 [41]: > 100 µM (inactive)
GI50 [17]: > 100 µM (inactive)
GI50 [42]: > 100 µM (inactive)
GI50 [18]: > 100 µM (inactive)
GI50 [43]: > 100 µM (inactive)
GI50 [19]: > 100 µM (inactive)
GI50 [44]: > 100 µM (inactive)
GI50 [20]: > 100 µM (inactive)
GI50 [45]: > 100 µM (inactive)
GI50 [21]: > 100 µM (inactive)
GI50 [46]: > 100 µM (inactive)
GI50 [47]: > 100 µM (inactive)
GI50 [48]: > 100 µM (inactive)
GI50 [49]: > 100 µM (inactive)
GI50 [22]: > 100 µM (inactive)
GI50 [23]: > 100 µM (inactive)
GI50 [24]: > 100 µM (inactive)
GI50 [50]: > 100 µM (inactive)
GI50 [51]: > 100 µM (inactive)
GI50 [52]: > 100 µM (inactive)
GI50 [53]: > 100 µM (inactive)
GI50 [25]: > 100 µM (inactive)
GI50 [54]: > 100 µM (inactive)
GI50 [55]: > 100 µM (inactive)
GI50 [26]: > 100 µM (inactive)
GI50 [56]: > 100 µM (inactive)
GI50 [27]: > 100 µM (inactive)

Source: ChEMBL document CHEMBL1201862, “PubChem BioAssay data set” (2004)
